“And” between values parts separate entries of the source, which are not always exact repeats. Identical values can stand only once.
Test system: MM.1S cells proteome
Assay: diaPASEF quantitative proteomics in MM.1S cells: proteome-wide degradation selectivity (other proteins)
Assay type: cell-based, human
Settings: for Precursor intensity (DIA-NN), CLPX precursor AAAAADLANR2: CLPX_HUMAN (O76031), ATP-dependent Clp protease ATP-binding subunit clpX-like, mitochondrial; for Precursor intensity (DIA-NN), SAMD1 precursor AAAAAATAPPSPGPAQPGPR2: SAMD1_HUMAN (Q6SPF0), Atherin; for Precursor intensity (DIA-NN), ZFP91 precursor AAAAAAAAAVSR2: ZFP91_HUMAN (Q96JP5), E3 ubiquitin-protein ligase ZFP91
Method: To analyze the proteome-wide degradation selectivity of hetero-PROTACs 9, 25, and 27, a diaPASEF-based mass spectrometry approach was employed.[54] MM.1S cells were treated with 100 nM PROTACs for 3 h. […] Accordingly, global proteomic plots show the mathematically imputed levels of IAP proteins in treatment groups if the corresponding IAP was detected in the control treatment (see also Experimental Section).
MM1s cells were treated with DMSO or 0.1 μM of compound for 3 h. The cells were harvested by centrifugation and washed with phosphate-buffered saline before snap-freezing in liquid nitrogen. The cells were lysed by addition of lysis buffer (8 M urea, 50 mM NaCl, 50 mM 4-(2-hydroxyethyl)-1-piperazine-ethanesulfonic acid (EPPS) pH 8.5, protease, and phosphatase inhibitors) and homogenization by bead beating (BioSpec) for three repeats of 30 s at 2400. Bradford assay was used to determine the final protein concentration in the clarified cell lysate. 50 μg of protein for each sample was reduced, alkylated, and precipitated using methanol/chloroform as previously described,[64] and the resulting washed precipitated protein was allowed to air dry. The precipitated protein was resuspended in 4 M urea, 50 mM HEPES pH 7.4, followed by dilution to 1 M urea with the addition of 200 mM EPPS, pH 8. […] The LysC digestion was diluted to 0.5 M urea with 200 mM EPPS pH 8, followed by digestion with trypsin (1:50; enzyme/protein) for 6 h at 37 °C. Sample digests were acidified with formic acid to a pH of 2–3 prior to desalting using C18 solid-phase extraction plates (SOLA, Thermo Fisher Scientific). Desalted peptides were dried in a vacuum centrifuge and reconstituted in 0.1% formic acid for LC–MS analysis.
Data were collected using a TimsTOF Pro2 (Bruker Daltonics, Bremen, Germany) coupled to a nanoElute LC pump (Bruker Daltonics, Bremen, Germany) via a CaptiveSpray nanoelectrospray source. […] Peptides were separated using a 50 min gradient of 2–30% buffer B (acetonitrile in 0.1% formic acid) with a flow rate of 250 nL/min and column temperature maintained at 50 °C.
Data-Dependent Acquisition (DDA) was performed in the Parallel Accumulation-Serial Fragmentation (PASEF) mode to determine effective ion mobility windows for downstream diaPASEF data collection.[54] The diaPASEF parameters included 100% duty cycle using accumulation and ramp times of 50 ms each, 1 TIMS-MS scan, and 10 PASEF ramps per acquisition cycle. The TIMS-MS survey scan was acquired between 100–1700 m/z and 1/K0 of 0.7–1.3 V × s/cm^2. Precursors with 1–5 charges were selected, and those that reached an intensity threshold of 20,000 arbitrary units were actively excluded for 0.4 min. The quadrupole isolation width was set to 2 m/z for m/z < 700 and 3 m/z for m/z > 800, with the m/z between 700 and 800 m/z being interpolated linearly. […] To perform diaPASEF, the precursor distribution in the DDA m/z-ion mobility plane was used to design an acquisition scheme for DIA data collection, which included two windows in each 50 ms diaPASEF scan. Data was acquired using 16 of these 25 Da precursor double window scans (creating 32 windows), which covered the diagonal scan line for doubly and triply charged precursors, with singly charged precursors able to be excluded by their position in the m/z-ion mobility plane. These precursor isolation windows were defined between 400–1200 m/z and 1/K0 of 0.7–1.3 V × s/cm^2.
The diaPASEF raw file processing and controlling peptide and protein level false discovery rates, assembling proteins from peptides, and protein quantification from peptides were performed using library-free analysis in DIA-NN 1.8.[65] The library-free mode performs an in silico digestion of a given protein sequence database alongside deep learning-based predictions to extract the DIA precursor data into a collection of MS^2 spectra.

[1] = precursor charge 2, per-replicate values (rep1, rep2)
[2] = MM.1S cells, 0.1 μM, 3 h, log2 fold change compound vs CTRLs (limma)
[3] = RL4_HUMAN (P36578), 60S ribosomal protein L4, precursor charge 1, per-replicate values (rep1, rep2)
[4] = precursor charge 2, per-replicate values (rep1, rep2), listed as Gue3582
[5] = precursor charge 2, per-replicate values (rep1, rep2), listed as SAB141

Structure (SMILES): CN[C@@H](C)C(=O)N[C@@H](C(=O)N1CCC[C@H]1C(=O)N[C@@H]1c2ccccc2C[C@@H]1OCC#CC#CCO[C@H]1Cc2ccccc2[C@H]1NC(=O)[C@@H]1CCCN1C(=O)[C@H](NC(=O)[C@H](C)NC)C1CCCCC1)C1CCCCC1 [AZD5582, reference compound]
- Precursor intensity (DIA-NN), CLPX precursor AAAAADLANR2 [1]: 16915 and 25995.2
- logFC ATP5MD [2]: -0.4905
- logFC CD44 [2]: -0.09493
- logFC EDF1 [2]: -0.1747
- logFC GOT2 [2]: -0.1164
- logFC RRP15 [2]: -0.3053
- Precursor intensity (DIA-NN), RPL4 precursor AAAAAAALQAK1 [3]: 331.845
- Precursor intensity (DIA-NN), RPL4 precursor AAAAAAALQAK2 (RL4_HUMAN (P36578), 60S ribosomal protein L4, precursor charge 2, per-replicate values (rep1, rep2)): 447305 and 464651
- Precursor intensity (DIA-NN), SAMD1 precursor AAAAAATAPPSPGPAQPGPR2 [1]: 15006.1 and 13237.9
- Precursor intensity (DIA-NN), ZFP91 precursor AAAAAAAAAVSR2 [1]: 67729.2 and 74323

Structure (SMILES): CN[C@@H](C)C(=O)N[C@H](C(=O)N1C[C@@H](Oc2cccc(OCCCCC(=O)N[C@H](C(=O)N3C[C@H](O)C[C@H]3C(=O)N[C@@H](C)c3ccc(-c4scnc4C)cc3)C(C)(C)C)c2)C[C@H]1C(=O)N[C@@H]1CCCc2ccccc21)C1CCCCC1 [PROTAC 9, (2S,4S)-1-((S)-2-Cyclohexyl-2-((S)-2-(methylamino)propanamido)acetyl)-4-(3-((5-(((S)-1-((2S,4R)-4-hydroxy-2-(((S)-1-(4-(4-methylthiazol-5-yl)phenyl)ethyl)carbamoyl)pyrrolidin-1-yl)-3,3-dimethyl-1-oxobutan-2-yl)amino)-5-oxopentyl)oxy)phenoxy)-N-((R)-1,2,3,4-tetrahydronaphthalen-1-yl)pyrrolidine-2-carboxamide]
- Precursor intensity (DIA-NN), CLPX precursor AAAAADLANR2 [4]: 27158.9 and 21797.6
- logFC EIF1AX [2]: 0.2289
- logFC SIGMAR1 [2]: 0.1571
- logFC TAF15 [2]: 0.09552
- logFC TOP1 [2]: 0.1861
- Precursor intensity (DIA-NN), RPL4 precursor AAAAAAALQAK1 (RL4_HUMAN (P36578), 60S ribosomal protein L4, precursor charge 1, per-replicate values (rep1, rep2), listed as Gue3582): 83.0044 and 593.705
- Precursor intensity (DIA-NN), RPL4 precursor AAAAAAALQAK2 (RL4_HUMAN (P36578), 60S ribosomal protein L4, precursor charge 2, per-replicate values (rep1, rep2), listed as Gue3582): 450548 and 462008
- Precursor intensity (DIA-NN), SAMD1 precursor AAAAAATAPPSPGPAQPGPR2 [4]: 15172 and 13054.7
- Precursor intensity (DIA-NN), ZFP91 precursor AAAAAAAAAVSR2 [4]: 70631.3 and 75175.8

Structure (SMILES): CN[C@@H](C)C(=O)N[C@H](C(=O)N1C[C@@H](Oc2cccc(OCCOCCCCCCOCCCCCCNc3cccc4c3C(=O)N(C3CCC(=O)NC3=O)C4=O)c2)C[C@H]1C(=O)N[C@@H]1CCCc2ccccc21)C1CCCCC1 (stereo partly drawn) [PROTAC 25, (2S,4S)-1-((S)-2-Cyclohexyl-2-((S)-2-(methylamino)propanamido)acetyl)-4-(3-(2-((6-((6-((2-(2,6-dioxopiperidin-3-yl)-1,3-dioxoisoindolin-4-yl)amino)hexyl)oxy)hexyl)oxy)ethoxy)phenoxy)-N-((R)-1,2,3,4-tetrahydronaphthalen-1-yl)pyrrolidine-2-carboxamide]
- Precursor intensity (DIA-NN), CLPX precursor AAAAADLANR2 [5]: 7987.33 and 21462.9
- logFC COX5A [2]: -0.5474
- logFC LMAN2 [2]: -0.1147
- logFC TOP1 [2]: 0.3058
- Precursor intensity (DIA-NN), RPL4 precursor […]1 [3]: 321.394
- Precursor intensity (DIA-NN), RPL4 precursor […]2 (RL4_HUMAN (P36578), 60S ribosomal protein L4, precursor charge 2, per-replicate values (rep1, rep2), listed as SAB141): 467864 and 464908
- Precursor intensity (DIA-NN), SAMD1 precursor AAAAAATAPPSPGPAQPGPR2 [5]: 14133.9 and 10400.6
- Precursor intensity (DIA-NN), ZFP91 precursor AAAAAAAAAVSR2 [5]: 72214.7 and 61349

Structure (SMILES): CN[C@@H](C)C(=O)N[C@H](C(=O)N1C[C@@H](Oc2cccc(OCCCCCCOCCCCCCOCCCCCCNc3cccc4c3C(=O)N(C3CCC(=O)NC3=O)C4=O)c2)C[C@H]1C(=O)N[C@@H]1CCCc2ccccc21)C1CCCCC1 (stereo partly drawn) [PROTAC 27, (2S,4S)-1-((S)-2-Cyclohexyl-2-((S)-2-(methylamino)propanamido)acetyl)-4-(3-((6-((6-((6-((2-(2,6-dioxopiperidin-3-yl)-1,3-dioxoisoindolin-4-yl)amino)hexyl)oxy)hexyl)oxy)hexyl)oxy)phenoxy)-N-((R)-1,2,3,4-tetrahydronaphthalen-1-yl)pyrrolidine-2-carboxamide]
- logFC COX6C [2]: -0.5143
- logFC EIF4B [2]: -0.1592
- logFC HNRNPA2B1 [2]: -0.1781
- logFC POTEJ [2]: -0.3899
- logFC TPM3 [2]: -0.214

— PMC10108347, “Heterobifunctional Ligase Recruiters Enable pan-Degradation of Inhibitor of Apoptosis Proteins” (Journal of Medicinal Chemistry, 2023)
